# Measured values: patent US11104632B1, “Metabolically stable vanillin derivatives for the treatment of hypoxia” (King Abdulaziz University, priority 2020, dated 2021)
# Tests used:
# Hb [1] = target: T1, Hb (Homo sapiens, UniProt P68871+P69905, E7V); assay: Hb oxygen equilibrium study (P50 shift, Hemox Analyzer) on lysate of treated SS cells; type: cell-based; settings: intact SS cells, read-out: increase in Hb oxygen affinity (ΔP50); for percent P50 decrease (increase in Hb oxygen affinity) at 2000 µM: 2 mM compound; for percent P50 decrease (increase in Hb oxygen affinity) at 5000 µM: 5 mM compound
# T1 construct: Leftover blood samples from patients with homozygous SS were obtained and utilized; from tissue; host or cells: blood (red blood cells) of patients with homozygous SS
# Description: (§1) In vitro Hemoglobin Modification, Oxygen Equilibrium and Antisickling Studies Using Human homozygous Sickle cell (SS) Blood
# (§2) Materials and General Procedure: Leftover blood samples from patients with homozygous SS were obtained and utilized, based on an approved IRB protocol at the Children's Hospital of Philadelphia, with informed consent.
# (§3) Experimental Procedure: The MMA series of compounds (MMA-202, MMA-204, and MMA-405) and the positive control vanillin were studied for their abilities to inhibit hypoxia-induced RBC sickling (RBC morphology study), increase Hb oxygen, and/or modify Hb (adduct formation) as previously published.^31,33 Briefly, homozygous SS blood (hematocrit: 20%) suspensions were incubated under air in the absence or presence of 2 and/or 5 mM concentration of test compounds at 37° C. for 1 hr. Following, the suspensions were incubated under hypoxic condition (2.5% oxygen) at 37° C. for 2 hr. Aliquot samples were fixed with 2% glutaraldehyde solution without exposure to air, and then subjected to microscopic morphological analysis. The residual samples were washed in phosphate-buffered saline, and hemolyzed in hypotonic lysis buffer for the Hb oxygen equilibrium and Hb adduct experiments. […] Another aliquot from the lysate was also subjected to Hb adduct formation study using cation-exchange HPLC (Hitachi D-7000 Series, Hitachi Instruments, Inc., San Jose, Calif.) with a weak cation-exchange column (Poly CAT A: 30 mm×4.6 mm, Poly LC, Inc., Columbia, Md.). To determine the binding of the MMA compounds to either α- or β-globin chains, the hemolysates were subjected to reversed-phase (RP) HPLC on a Hitachi D-7000 HSM Series, using a Jupiter 5 μm C-4 50×4.6 mm column, (Phenomenex®, Torrence, Calif.) and a gradient from 20% to 60% acetonitrile in 0.3% trifluoroacetic acid in 15 minutes, with UV detection at 215 nm.
# Hb [2] = target: T1, Hb; assay: Hb adduct formation study by cation-exchange HPLC after incubation with intact SS cells; type: cell-based; settings: 2 mM and/or 5 mM
# Description: as §3, with “To determine the binding of the MMA compounds to either α- or β-globin chains, the hemolysates were subjected to reversed-phase (RP) HPLC on a Hitachi D-7000 HSM Series, using a Jupiter 5 μm C-4 50×4.6 mm column, (Phenomenex®, Torrence, Calif.) and a gradient from 20% to 60% acetonitrile in 0.3% trifluoroacetic acid in 15 minutes, with UV detection at 215 nm.” left out
# intact SS cells = assay: Antisickling study (RBC morphology) under hypoxia with homozygous SS blood; type: cell-based, human; settings: SS blood hematocrit 20%, 2.5% oxygen, 37° C., 2 hr
# Description: as §1, §2
# as §3, with “Following,” for “Experimental Procedure: The MMA series of compounds (MMA-202, MMA-204, and MMA-405) and the positive control vanillin were studied for their abilities to inhibit hypoxia-induced RBC sickling (RBC morphology study), increase Hb oxygen, and/or modify Hb (adduct formation) as previously published.^31,33 Briefly, homozygous SS blood (hematocrit: 20%) suspensions were incubated under air in the absence or presence of 2 and/or 5 mM concentration of test compounds at 37° C. for 1 hr. Following,”
# α- or β-globin chains = target: T2, α- or β-globin chains (Homo sapiens, UniProt P68871+P69905, E7V); assay: Reversed-phase HPLC of hemolysates for binding to α- or β-globin chains; type: cell-based; settings: reverse-phase HPLC; 2 mM and/or 5 mM; intact SS cells
# T2 construct: Leftover blood samples from patients with homozygous SS were obtained and utilized; from tissue; host or cells: blood (red blood cells) of patients with homozygous SS
# Description: as §3
# [3] = in-vivo; aldehyde protected by L-cysteine; cited from earlier work
# Hb [4] = target: Hb (Homo sapiens, UniProt P68871+P69905); assay: In vitro time-dependent Hb oxygen equilibrium study using normal whole blood; settings: 2 mM; normal whole blood 30% hct; 37° C.; 1, 4 and 24 hr
Compound,percent P50 decrease (increase in Hb oxygen affinity) at 2000 µM (Hb [1]) [%],percent P50 decrease (increase in Hb oxygen affinity) at 5000 µM (Hb [1]) [%],Hb modification (adduct formation) (Hb [2]),RBC sickling (intact SS cells; 2 mM compound) [%],RBC sickling (intact SS cells; 5 mM compound) [%],globin chain bound (α- or β-globin chains),melting point [°C],extension of Vanillin half-life [3] [fold],time course of Hb oxygen affinity activity (% P50 shift) over 24 hr (Hb [4]),RBC sickling (intact SS cells; 1 mM compound) [%]
"C=CC(=O)c1ccc(OC2CCCCO2)cc1 (centres unmarked) [MMA-205, 1-(4-((tetrahydro-2H-pyran-2-yl)oxy)phenyl)prop-2-en-1-one]",21,39,significant Hb modification,46,27,bind exclusively with the β-chain,,,,
"COc1ccc(C(=O)C(N)=O)cc1 [MMA-203, 2-(4-methoxyphenyl)-2-oxoacetamide]",,,,,,,146,,,
"C#CC(=O)c1ccc(OC)cc1 [MMA-204, 1-(4-methoxyphenyl)prop-2-yn-1-one]",29,62,,57,44,bind exclusively with the β-chain,,,,
COc1cc(C=O)ccc1O [vanillin],12,27,,57,36,,,,,
COc1cc(C2NC(C(=O)O)CS2)ccc1O (centres unmarked) [thiazolidine complex of Vanillin],,,,,,,,2,,
"COC(=O)C(=O)c1ccc(OC)cc1 [MMA-201, methyl 2-(4-methoxyphenyl)-2-oxoacetate]",,,,,,,49,,,
"C=CC(=O)c1ccc(OC)cc1 [MMA-202, 1-(4-methoxyphenyl)prop-2-en-1-one]",13,51,significant Hb modification,28,15,bind to both the α-chain and β-chain,,,sustained throughout the 24 hr experiment,48
